Source: patent US10618916B2, “Heterocyclic compounds as immunomodulators” (Incyte Corporation, priority 2018, dated 2020)
Like-named read-outs stand apart in the source and are kept apart here.

What was measured:
[1] = tested on: PD-L1 aAPC/CHO-K1 cells and Jurkat-PD-1-NFAT effector cells; assay: Nuclear factor of activated T-cells (NFAT) assay; assay type: cell-based
Description: Example C. Nuclear Factor of Activated T-Cells (NFAT) Assay
PD-L1 aAPC/CHO-K1 cells (Promega) were maintained in F-12 medium with addition of 10% FBS, 200 μg/ml Hygromycin B, 250 μg/ml Geneticin (G418). Jurkat-PD-1-NFAT effector cells (Promega) were cultured in RPMI 1640 medium supplemented with 10% FBS, 100 μg/ml Hygromycin B, 500 μg/ml G418. The culture media of PD-L1 aAPC/CHO-K1 cells were first replaced with assay medium (RPMI1640 medium with 1% FBS). The PD-L1 aAPC/CHO-K1 cells were then added in a white 384-well white clear bottom assay plate (CELLCOAT® Tissue Culture Plates, Greiner Bio-One) at 8000 per well in 10 μL assay medium. Test compounds were prepared by serial dilution in DMSO and 0.8 μL test compounds in DMSO were first transferred to the 384 REMP plate well (Thermofisher) by PlateMate Plus (Thermofisher) followed with addition of 50 μL plating medium. 5 μL compounds in the assay medium were transferred to the cells with 0.4% DMSO in the final assay at 2 μM. After removing the culture media, 10,000 Jurkat-PD-1-NFAT effector cells in 5 μL assay medium was dispensed into each well. The assay plate was incubated at 37° C., 5% CO2 for 24 hours. After the assay plate was equilibrated to room temp for 15 minutes, 20 µL/well of Bio-Glo™ reagent (Promega) were added. After 8 minutes incubation at room temperature, luminescence was read at with Pherastar microplate reader (BMG Labtech). The fold of induction (FOI) was calculated based on the ratio of luminescence normalized to the DMSO wells within each assay plate. The maximum percentage of induction was reported based on the ratio between the highest FOI of each compound and the maximum FOI of control compound within each assay plate. Wells with DMSO were served as the negative controls and wells containing control compound with the highest FOI were used as positive controls. EC50 determination was performed by fitting the curve of percent control activity versus the log of the compound concentration using the GraphPad Prism 6.0 software.

[2] = biological target: PD-1/PD-L1 protein/protein interaction (recombinant human PD-L1 and human PD-1) (Homo sapiens (Human), UniProt Q9NZQ7); assay: Homogeneous Time-Resolved Fluorescence (HTRF) PD-1/PD-L1 binding assay
Sequence of PD-1/PD-L1 protein/protein interaction (recombinant human PD-L1 and human PD-1) (Q9NZQ7 19-238): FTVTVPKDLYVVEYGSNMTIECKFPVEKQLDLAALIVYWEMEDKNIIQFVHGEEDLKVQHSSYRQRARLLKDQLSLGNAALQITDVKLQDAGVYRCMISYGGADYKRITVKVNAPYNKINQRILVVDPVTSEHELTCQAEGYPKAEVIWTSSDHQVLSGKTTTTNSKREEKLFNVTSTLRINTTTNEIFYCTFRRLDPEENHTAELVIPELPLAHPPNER
Description: Example A. Homogeneous Time-Resolved Fluorescence (HTRF) PD-1/PD-L1 Binding Assay
The assays were conducted in a standard black 384-well polystyrene plate with a final volume of 20 μL. Inhibitors were first serially diluted in DMSO and then added to the plate wells before the addition of other reaction components. The final concentration of DMSO in the assay was 1%. The assays were carried out at 25° C. in the PBS buffer (pH 7.4) with 0.05% Tween-20 and 0.1% BSA. Recombinant human PD-L1 protein (19-238) with a His-tag at the C-terminus was purchased from AcroBiosystems (PD1-H5229). Recombinant human PD-1 protein (25-167) with Fc tag at the C-terminus was also purchased from AcroBiosystems (PD1-H5257). PD-L1 and PD-1 proteins were diluted in the assay buffer and 10 μL was added to the plate well. Plates were centrifuged and proteins were preincubated with inhibitors for 40 minutes. The incubation was followed by the addition of 10 μL of HTRF detection buffer supplemented with Europium cryptate-labeled anti-human IgG (PerkinElmer-AD0212) specific for Fc and anti-His antibody conjugated to SureLight®-Allophycocyanin (APC, PerkinElmer-AD0059H). After centrifugation, the plate was incubated at 25° C. for 60 min. before reading on a PHERAstar FS plate reader (665 nm/620 nm ratio). Final concentrations in the assay were—3 nM PD1, 10 nM PD-L1, 1 nM europium anti-human IgG and 20 nM anti-His-Allophycocyanin. IC50 determination was performed by fitting the curve of percent control activity versus the log of the inhibitor concentration using the GraphPad Prism 5.0 software.

PD-L1 = PD-L1 (Homo sapiens (Human), UniProt Q9NZQ7); assay: PD-L1 whole blood internalization assay; assay type: cell-based; settings: 24 HR, PD-L1 expression on CD14+ cells, human interferon γ
Sequence of PD-L1 (Q9NZQ7 19-290): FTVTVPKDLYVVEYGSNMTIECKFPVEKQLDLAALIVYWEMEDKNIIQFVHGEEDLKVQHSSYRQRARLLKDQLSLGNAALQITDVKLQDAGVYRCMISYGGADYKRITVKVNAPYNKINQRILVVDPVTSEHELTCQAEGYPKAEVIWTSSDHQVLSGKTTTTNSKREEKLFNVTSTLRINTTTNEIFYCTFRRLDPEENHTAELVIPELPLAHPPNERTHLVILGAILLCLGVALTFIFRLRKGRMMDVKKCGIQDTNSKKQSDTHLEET
Description: Example D. PD-L1 Whole Blood Internalization Assay
To determine PD-L1 internalization in human whole blood, normal human blood (Biological Specialty Corp, Colmar. Pa.) was incubated in the presence or absence of a concentration range of test compounds and 1 ng/ml human interferon γ (R&D Systems Inc. Minn. […] Blood was then stained with PD-L1 (MIH1, eBioscience; or BD Biosciences San Jose, Calif.), CD14 (Life Technologies, Carlsbad, Calif.) for 30 minutes in the dark at room temperature. Whole Blood/red cells were lysed/fixed (lysis buffer BD Biosciences) for 5 minutes at 37° C. in the dark and then centrifuged at 1600 RPM for 5 minutes. Cells were resuspended in Stain Buffer (BD Bioscience, San Jose, Calif.) and transferred into 96 well round bottom plates (Corning). Cells were gated on CD14+(BD Biosciences) and PD-L1 expression determined by mean fluorescence intensity (MFI) (BD LSRFortessa™ X-20). IC50 determination was performed by fitting the curve of compound percent inhibition versus the log of the compound concentration using the GraphPad Prism 7.0 software.

[3] = tested on: U2OS/PD-L1 cells and Jurkat-PD-1-SHP cells; assay: Src homology region 2 domain-containing phosphatase (SHP) assay; assay type: cell-based
Description: Example B. Src Homology Region 2 Domain-Containing Phosphatase (SHP) Assay
U2OS/PD-L1 cells (DiscoveRx Corporation) were maintained in McCoy's 5A medium with addition of 10% FBS, 0.25 μg/ml Puromycin. After removing the culture media, the cell medium was replaced with assay medium (RPMI1640 medium with 1% FBS). The U2OS/PD-L1 cells were then added in 384-well black clear bottom assay plate (CELLCOAT® Tissue Culture Plates, Greiner Bio-One) at 5000 cells per well in 20 μL assay medium. Test compounds were prepared by serial dilution in DMSO and 125 nL compound were first transferred to the 384 REMP plate well (Thermofisher) by ECHO liquid handler (Labcyte) followed with addition of 27.5 μL assay medium. 5 μL/well compounds in the assay medium were transferred to the cell plate with 0.05% DMSO in the final assay at […]. Jurkat-PD-1-SHP cells (DiscoveRx Corporation) were cultured in RPMI1640 medium supplemented with 10% FBS, 250 μg/ml Hygromycin B, 500 μg/ml G418. After the replacement of culture media with assay medium, 5,000 Jurkat-PD-1-SHP cells in 20 μL were dispensed into each well. The assay plate was incubated at 37° C., 5% CO2 for 2 hours before 2.5 μL PathHunter reagent 1 (DiscoveRx Corporation) were added to each well. The assay plate was shaken for 1 min at 350 rpm in the dark followed with addition of 10 μL PathHunter reagent 2 (DiscoveRx Corporation). Chemiluminescent signal was recorded with TopCount reader (Perkin Elmer) after incubation at room temperature for 1 hour. Wells with DMSO were served as the positive controls and wells containing no cells were used as negative controls. IC50 determination was performed by fitting the curve of percentage of control activity versus the log of the compound concentration using the GraphPad Prism 6.0 software.

Row | Structure (SMILES) | EC50 ([1]; Cricetulus griseus, CHO-K1) [µM] | IC50 [2] [µM] | IC50 (PD-L1) [µM] | IC50 ([3]; Homo sapiens, U2OS) [µM] | EC50 [1] [µM] | IC50 [3] [µM]
1 | Cc1c(NC(=O)c2nc3c(n2C)CCN(C[C@H](C)O)C3)cccc1-c1cccc(NC(=O)c2nc3c(n2C)CCN(CCC24CCC(C(=O)O)(CC2)C4)C3)c1Cl [Example 32, (S)-4-(2-(2-((2-chloro-3′-(5-(2-hydroxypropyl)-1-methyl-4,5,6,7-tetrahydro-1H-imidazo[4,5-c]pyridine-2-carboxamido)-2′-methyl-[1,1′-biphenyl]-3-yl)carbamoyl)-1-methyl-1,4,6,7-tetrahydro-5H-imidazo[4,5-c]pyridin-5-yl)ethyl)bicyclo[2.2.1]heptane-1-carboxylic acid] | 0.01 to 0.1 | ≤ 0.005 | 0.01 to 0.1 | – | – | –
2 | Cn1c(C(=O)Nc2cccc(-c3cccc(NC(=O)c4nc5c(n4C)CCN(Cc4cc(C(=O)O)n[nH]4)C5)c3Cl)c2Cl)nc2c1CCN(CCC13CCC(C(=O)O)(CC1)C3)C2 [Example 26, 5-((2-((3′-(5-(2-(4-carboxybicyclo[2.2.1]heptan-1-yl)ethyl)-1-methyl-4,5,6,7-tetrahydro-1H-imidazo[4,5-c]pyridine-2-carboxamido)-2,2′-dichloro-[1,1′-biphenyl]-3-yl)carbamoyl)-1-methyl-1,4,6,7-tetrahydro-5H-imidazo[4,5-c]pyridin-5-yl)methyl)-1H-pyrazole-3-carboxylic acid] | 0.01 to 0.1 | ≤ 0.005 | – | ≤ 0.01 | – | –
3 | Cc1c(NC(=O)c2nc3c(n2C)CCN(CCC24CCC(C(=O)O)(CC2)C4)C3)cccc1-c1cccc(NC(=O)c2nc3c(n2C)CCN(CC24CCC(C(=O)O)(CC2)C4)C3)c1C [Example 55, 4-((2-((3′-(5-(2-(4-carboxybicyclo[2.2.1]heptan-1-yl)ethyl)-1-methyl-4,5,6,7-tetrahydro-1H-imidazo[4,5-c]pyridine-2-carboxamido)-2,2′-dimethyl-[1,1′-biphenyl]-3-yl)carbamoyl)-1-methyl-1,4,6,7-tetrahydro-5H-imidazo[4,5-c]pyridin-5-yl)methyl)bicyclo[2.2.1]heptane-1-carboxylic acid] | 0.01 to 0.1 | ≤ 0.005 | – | ≤ 0.01 | – | –
4 | Cc1c(NC(=O)c2nc3c(n2C)CCN(C2CCC(O)CC2)C3)cccc1-c1cccc(NC(=O)c2nc3c(n2C)CCN(CCC24CCC(C(=O)O)(CC2)C4)C3)c1Cl (single isomer, unassigned) [61 (compound 2), 4-(2-(2-((2-chloro-3′-(5-(4-hydroxycyclohexyl)-1-methyl-4,5,6,7-tetrahydro-1H-imidazo[4,5-c]pyridine-2-carboxamido)-2′-methyl-[1,1′-biphenyl]-3-yl)carbamoyl)-1-methyl-1,4,6,7-tetrahydro-5H-imidazo[4,5-c]pyridin-5-yl)ethyl)bicyclo[2.2.1]heptane-1-carboxylic acid] | – | ≤ 0.005 | – | – | 0.01 to 0.1 | ≤ 0.01
5 | Cc1c(NC(=O)c2nc3c(n2C)CCN(CCO)C3)cccc1-c1cccc(NC(=O)c2nc3c(n2C)CCN(CCC24CCC(C(=O)O)(CC2)C4)C3)c1C [Example 59, 4-(2-(2-((3′-(5-(2-hydroxyethyl)-1-methyl-4,5,6,7-tetrahydro-1H-imidazo[4,5-c]pyridine-2-carboxamido)-2,2′-dimethyl-[1,1′-biphenyl]-3-yl)carbamoyl)-1-methyl-1,4,6,7-tetrahydro-5H-imidazo[4,5-c]pyridin-5-yl)ethyl)bicyclo[2.2.1]heptane-1-carboxylic acid] | 0.1 to 0.5 | ≤ 0.005 | – | ≤ 0.01 | – | –
6 | Cn1c(C(=O)Nc2cccc(-c3cccc(NC(=O)c4nc5c(n4C)CCN(CC46CCC(C(=O)O)(CC4)C6)C5)c3C#N)c2Cl)nc2c1CCN(CCC13CCC(C(=O)O)(CC1)C3)C2 [Example 52, 4-((2-((3′-(5-(2-(4-carboxybicyclo[2.2.1]heptan-1-yl)ethyl)-1-methyl-4,5,6,7-tetrahydro-1H-imidazo[4,5-c]pyridine-2-carboxamido)-2′-chloro-2-cyano-[1,1′-biphenyl]-3-yl)carbamoyl)-1-methyl-1,4,6,7-tetrahydro-5H-imidazo[4,5-c]pyridin-5-yl)methyl)bicyclo[2.2.1]heptane-1-carboxylic acid] | 0.1 to 0.5 | ≤ 0.005 | – | 0.01 to 0.1 | – | –
7 | Cc1c(NC(=O)c2nc3c(n2C)CCN(C)C3)cccc1-c1cccc(NC(=O)c2nc3c(n2C)CCN(CCC24CCC(C(=O)O)(CC2)C4)C3)c1Cl [Example 29, 4-(2-(2-((2-chloro-3′-(1,5-dimethyl-4,5,6,7-tetrahydro-1H-imidazo[4,5-c]pyridine-2-carboxamido)-2′-methyl-[1,1′-biphenyl]-3-yl)carbamoyl)-1-methyl-1,4,6,7-tetrahydro-5H-imidazo[4,5-c]pyridin-5-yl)ethyl)bicyclo[2.2.1]heptane-1-carboxylic acid] | 0.01 to 0.1 | ≤ 0.005 | – | ≤ 0.01 | – | –
8 | CN1CCc2c(nc(C(=O)Nc3cccc(-c4cccc(NC(=O)c5nc6c(n5C)CCN(CCC57CCC(C(=O)O)(CC5)C7)C6)c4Cl)c3Cl)n2C)C1 [Example 3, 4-(2-(2-((2,2′-dichloro-3′-(1,5-dimethyl-4,5,6,7-tetrahydro-1H-imidazo[4,5-c]pyridine-2-carboxamido)-[1,1′-biphenyl]-3-yl)carbamoyl)-1-methyl-1,4,6,7-tetrahydro-5H-imidazo[4,5-c]pyridin-5-yl)ethyl)bicyclo[2.2.1]heptane-1-carboxylic acid] | 0.01 to 0.1 | ≤ 0.005 | – | ≤ 0.01 | – | –
